# Assay results published in ChEMBL document CHEMBL1806440, “N-β-glycosyl sulfamides are selective inhibitors of the cancer associated carbonic anhydrase isoforms IX and XII” (Bioorg Med Chem Lett, 2011).
# Target: Carbonic anhydrase 9 (Homo sapiens, UniProt Q16790)
row,SMILES,Ki
1,CC(=O)OC[C@H]1O[C@@H](NS(N)(=O)=O)[C@H](OC(C)=O)[C@@H](OC(C)=O)[C@@H]1OC(C)=O,7.7 nM
2,CC(=O)OC[C@H]1O[C@@H](NS(N)(=O)=O)[C@H](OC(C)=O)[C@@H](OC(C)=O)[C@H]1OC(C)=O,7.2 nM
3,CC(=O)OC[C@H]1O[C@@H](NS(N)(=O)=O)[C@@H](OC(C)=O)[C@@H](OC(C)=O)[C@@H]1OC(C)=O,5 nM
4,C[C@H]1O[C@@H](NS(N)(=O)=O)[C@@H](O)[C@@H](O)[C@@H]1O,3140 nM
5,CC(=O)OC[C@H]1O[C@@H](NS(N)(=O)=O)C[C@@H](OC(C)=O)[C@@H]1OC(C)=O,13 nM
6,CC(=O)OC[C@H]1O[C@@H](NS(N)(=O)=O)C[C@@H](OC(C)=O)[C@H]1OC(C)=O,16 nM
